Results as given in patent US8012944B2, “Method for treating cancer using IAP antisense oligomer and chemotherapeutic agent” (Pharmascience Inc., priority 2003, dated 2011).

Assays:
pro-caspase-3, PARP = assay: Pro-caspase-3 and PARP protein in H460 cells (western blot); type: cell-based, human; conditions: 1.2 μM
Description: One day prior to transfection, H460 cells were plated in 6- or 96-well tissue culture plates. Phosphorothioate antisense oligonucleotides were delivered into cells with Lipofectamine 2000 (Life Technologies) in the form of liposome-oligonucleotide complexes. Following a 4.5 or 6 h transfection, the transfection medium was replaced with RPMI medium containing 10% FBS, and the cells incubated for another 24 or 48 h.
The cells or tumor tissue samples were lysed with ice-cold lysis buffer (50 mM Tris, 150 mM NaCl, 2.5 mM EDTA, 0.1% SDS, 0.5% sodium deoxycholate, 1% NP-40, 0.02% sodium azide) containing protease inhibitors (Complete-Mini protease inhibitor tablets; Boehringer Mannheim GmBH, Mannheim, Germany). After incubation for 30 min on ice, samples were centrifuged at 10,000 rpm for 15 min, and stored at −20° C. Protein content in the lysed extracts was determined using a detergent-compatible Bio-Rad assay (Bio-Rad Labs, Hercules, Calif.). Equal amounts of protein (40 μg/lane) were separated on 12% SDS-polyacrylamide gels or 4-15% gradient SDS-polyacrylamide pre-made gels (Bio-Rad) and transferred to nitrocellulose membranes. Primary antibodies against XIAP, Bcl-2 (DAKO, Glostrup, Denmark), Bax (Sigma, St. Louis, Mo.), β-actin (Sigma), caspase-3 (BD PharMingen, San Diego, Calif.), and PARP (BD PharMingen) were used. The secondary antibody was the appropriate horseradish-conjugated anti-mouse or anti-rabbit IgG (Promega, Madison, Wis.). Proteins were detected by enhanced chemiluminescence (ECL; Amersham Pharmacia Biotech, Buckinghamshire, England) and visualized after exposure to Kodak autoradiography film. Scanning densitometry (Molecular Dynamics, Sunnyvale, Calif.) was performed to quantify band intensities by volume/area integration. The amount of XIAP, caspase-3, Bcl-2 and Bax in cells was normalized to their respective lane β-actin levels, upon stripping and reprobing.

H460 cells = assay: H460 cell growth, viability or death (MTT assay); type: cell-based, human; conditions: 1.2 μM
Description: Growth inhibition of […] cells was determined by the colorimetric MTT cell viability/proliferation assay. In brief, cells were treated with liposome-oligonucleotide complexes for 4.5 h, then incubated for another 48 h at 37° C. in medium without transfection reagent or oligonucleotides in the presence or absence of anticancer drugs. MTT (25 μg/well) was added to each well, and the plates incubated for 3 h at 37° C. Following the incubation step, the colored formazan product was dissolved by the addition of 200 μl DMSO. Plates were read using the microtiter plate reader (Dynex Technologies Inc., Chantilly, Va.) at a wavelength of 570 nm. The percentage of surviving cells in wells treated with oligonucleotides was normalized to untreated controls. All assays were performed in triplicate.

H460 tumors = assay: Histopathology and ubiquitin immunohistochemistry of H460 tumors; type: in vivo, SCID-RAG2 mice; conditions: 15 mg/kg; day 21 or 24
Description: To evaluate whether XIAP AS oligonucleotide administration results in direct tumor cell kill, we examined the histology of tumors after treatment both for morphology and ubiquitin immunostaining (FIGS. 19A and 19B). At day 21 or 24 post-tumor inoculation, tumors treated with 15 mg/kg of G4 AS oligonucleotides, SC oligonucleotides, or saline control were excised, sectioned, and stained with hematoxylin and eosin.
The degradation of proteins is largely ubiquitin-proteasome-dependent; increased ubiquitin expression has been observed during apoptosis. Thus, we examined the ubiquitin expression in the tumors sections used for hematoxylin and eosin staining.
Mouse tumors were collected on day 21 or 24 post-tumor inoculation and treatment. One portion of the tumor tissue was fixed in formalin. Paraffin-embedded tissues were sectioned and subjected to gross histopathology using hematoxylin and eosin staining and immunohistochemistry for ubiquitin expression. The other portion of the tumor was homogenized in lysis buffer for western blot analysis (see above).

Sequence: GCTGAGTCTCCATATTGCC [G4 AS] (chemistry not given here)
- reduction of pro-caspase-3 protein levels compared to untreated control (pro-caspase-3, PARP): 60%
- cell death (H460 cells; H460 cells): 60%
- reduction of H460 cell growth relative to untreated control (H460 cells; MTT, 48 hours after transfection): 55%
- tumor histology (hematoxylin and eosin) (H460 tumors): increased number of dead cells
